The target of test [1] is T1, human platelet PLA2 (Homo sapiens, UniProt P14555).
T1 construct: The PLA2 enriched supernatant fluid is removed and the amount of protein is determined by the Lowry method; from tissue; host or cells: expired human platelets from the blood bank (acid extract, not purified)
T1 sequence (P14555 21-144): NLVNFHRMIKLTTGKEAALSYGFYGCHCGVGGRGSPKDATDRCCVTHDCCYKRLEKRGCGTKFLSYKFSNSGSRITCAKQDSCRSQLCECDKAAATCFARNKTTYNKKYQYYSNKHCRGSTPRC
Briefly: Inhibition of cell free human platelet PLA2 (hydrolysis of [3H]-AA labelled E. coli phospholipids). Type of test: biochemical. The settings on record: for inhibition at 50 µM: pH 7.4, 37° C. The protocol:
The ability of the compounds in the scope of the invention to inhibit the activity of cell free human platelet PLA2 enzyme is measured in the following in vitro assay.
E. coli, cultured to exponential growth, are sedimented for 15 minutes at 10,000 g and resuspended in sterile isotonic saline (1-3 ml). 10-25 μCi uniformly labeled [^3 H]-arachidonic acid (AA) is added to a sterile flask, evaporated by N2 and resolubilized with 0.3 ml 20% fatty acid-free bovine serum albumen (BSA). 75-100 ml of nutrient broth and 1 ml E. coli are then added to each flask and incubated for 2-3 hours at 37° C. [^3 H]-AA labelled E. coli are then sedimented, suspended in saline and added to fresh nutrient broth and incubated for 1.5 hours at 37° C. to complete [^3 H]-AA incorporation into the phospholipids. After overnight refrigeration of cultures, E. coli are again sedimented, suspended in saline and autoclaved for 15 minutes at 120° C. E. coli cultures are washed twice with saline (first wash contains 1 % BSA) and resuspended in saline. Non-labelled E. coli cultures are also prepared in the same manner. Cell number is determined by measuring the optical density at […] (3×10 cell/ml=1 O.D.). The amount of radioactivity associated with cells is determined by counting a defined volume of cell suspension. The specific activity is subsequently adjusted by adding non-labelled E. coli to yield 2-4×10 cpm per 1×10^10 E. coli.
Expired human platelets from the blood bank are centrifuged for 15 minutes at 200 g to obtain a platelet rich fraction and to remove the red blood cells. Platelets are sedimented for 15 minutes at 2500 g and the plasma is removed before adding cold 0.18N H2 SO4 (4 ml/unit). Platelets are homogenized, incubated for 1 hour at 4° C., homogenized again and centrifuged for 15 minutes at 10,000 g. The PLA2 enriched supernatant fluid is removed and the amount of protein is determined by the Lowry method. The preparation is divided into various portions and stored at -20° C.
The assay measures the hydrolysis of E. coli membrane phospholipids and the release of free [^3 H]-AA from the C-2 position of phospholipids by human platelet PLA2. To ice cold 15×100 mm test tubes, the following additions are made; 2.5×10^8 E. coli (equivalent to 5 nmol phospholipid), 5 mM Ca++, 100 mM Tris buffer (pH=7.4), 100 μg platelet extract (or an amount to produce 20-30% hydrolysis), drug or vehicle. Incubation are carried out at 37° C. in a shaking water bath for 30 minutes. The reaction is terminated by the addition of 2 volumes of tetrahydrofuran (THF) and the mixture is vortexed. Hydrolyzed [^3 H]-AA is separated from unhydrolyzed phospholipid by solid phase extraction using Bond elute NH2 columns (Analytichem Intermat.). Columns are conditioned with 0.5 ml THF followed by 0.5 ml THF:H2 O (2.0:0.1 ml v/v). Samples are loaded onto columns and hydrolyzed [^3 H]-AA is eluted with 1 ml THF:glacial acetic acid (98.0:2.0 ml v/v). The elutant is transferred to vials, 10 ml Optifluor is added and the radioactivity is determined by liquid scintillation counting.
Treatments are corrected for non-enzymatic hydrolysis by subtracting the dpms in treatments containing no enzyme. Mean [^3 H]-AA dpm is determined and a percent inhibition relative to vehicle treated samples is calculated.
The percent hydrolysis is calculated by the following equation: [formula]

For test [2], the system named is synthesis of the arachidonic acid cyclooxygenase oxidation product TxB2. Put plainly: Inhibition of TxB2 synthesis (cyclooxygenase product) by rat polymorphonuclear leukocytes. Type of test: cell-based, rat (female Wistar). The settings on record: Leukocyte, A23187-stimulated rat PMN.
For test [3], the system named is synthesis of LTB4 by rat glycogen-elicited polymorphonuclear leukocytes (PMN). Put plainly: Inhibition of LTB4 synthesis by rat glycogen-elicited polymorphonuclear leukocytes (PMN). Type of test: cell-based, rat (female Wistar). The settings on record: Leukocyte, A23187-stimulated rat PMN.
Test [4] has as its system rat carrageenan paw edema. Briefly: Rat carrageenan paw edema. In kind it is in vivo, rat (Sprague-Dawley). The note with it: 3 h; for % Inhibition of paw edema: at 50 mg/kg (peroral), 1 h prior to carrageenan. The protocol: The compounds in the scope of the invention are further tested in the rat carrageenan paw edema to determine their ability to inhibit the acute inflammatory response.
[…] male Sprague-Dawley rats, in groups of 6 animals are injected subcutaneously in the right paw with 0.1 ml of 1% carrageenan at zero time. Mercury plethysmographic readings (ml) of the paw are made at zero time and 3 hours later. Test compounds are suspended or dissolved in 0.5% methylcellulose and given perorally 1 hour prior to carrageenan administration.
The increase in paw volume (edema in ml.) produced by the carrageenan is measured. Paw edema is calculated (3 hour volume minus zero time volume), and percent inhibition of edema is determined. Unpaired Student's t-test is used to determine statistical significance.
A general note: The carrageenan paw model is a standard test of acute inflammation.

Test [5] concerns Naja mocambique mocambique PLA2. Briefly: Vascular cutaneous permeability induced by snake venom PLA2 in guinea pigs. Type of test: in vivo, guinea pig (Hartley). The note with it: for % Inhibition (PLA2-induced vascular permeability): standard drug.
The subject of test [6] is TPA-induced mouse ear edema. Put plainly: TPA-induced murine ear edema test. In kind it is in vivo, mouse (Swiss Webster). The note with it: 1 mg/ear, 30 min after TPA, measured 4 h after TPA.
For test [7], the system named is AA-induced mouse ear edema. Briefly: Arachidonic acid (AA)-induced murine ear edema test. The note with it: 1 mg/ear, 30 min prior to AA, measured 1 h after AA. Type of test: in vivo, mouse (Swiss Webster).
Test [8] relates to oxazolone-induced contact hypersensitivity in the mouse ear. Briefly: Oxazolone-induced contact hypersensitivity in the mouse ear. Type of test: in vivo, mouse (Swiss Webster). The note with it: dosed at 1 mg/ear. The protocol: The assay of this Example measures the ability of the compounds in the scope of the invention to inhibit oxazolone-induced contact hypersensitivity in the mouse ear.
Female, Swiss Webster mice (8 weeks old) are placed into groups of 6 and the abdominal area of each is shaved. The mice are sensitized to oxazolone (4-ethoxymethylene-2-phenyl-oxazol-5-one) by applying 100 μl of a 2% solution in 95% alcohol directly onto the shaved abdomen using an automatic pipette and rubbing the residual oxazolone into the skin with a round wooden stick. Six days after sensitization each mouse is challenged by applying 20 μl of a 2% oxazolone solution in 95% alcohol to the right ear (10 μl on each side) and 20 μl of alcohol alone to the left ear. Compounds for topical applications are prepared in acetone and administered to the right ear 30 min after challenge or 30 min prior to and 5 h after challenge; acetone (vehicle) is applied to the left ear. Compounds for oral administration are suspended in 0.5 ml of 0.5% methyl cellulose and given ten min prior to challenge. Ear thickness of both ears is measured in mm×10^-2 at 24 and 48 h after challenge using an Oditest caliper. Edema is calculated by subtracting the left ear thickness from the right ear thickness. Drug effects are determined by calculating the percentage change from control for each time period.

[9] abbreviates: cell free human platelet PLA2, pH 7.4, 37° C., 30 min, read-out: IC50 (PLA2).

pIC50: −log10 of the molar value. Like-named read-outs stand apart in the source and are kept apart here.

What is called inhibition is the relative decrease from the control value, in per cent. A lower inhibition goes with a response near the control. In general, pIC50 refers to the IC50 on a negative log10 scale, so that one unit is a factor of ten. As usually defined, the ED50 is the midpoint of the dose-response relation.

In test [1] (30 min), `COC(=O)C1(C(F)CCCCOc2ccc(Cl)cc2)CO1` (single isomer, unassigned) [2 (isomer A), 2-[5-(4-Chlorophenoxy)-1-fluoropentyl]-2-oxiranecarboxylic acid methyl ester (isomer A)] had an inhibition at 50 µM of 83.8%. In test [1] (setting [9]), the pIC50 is 4.86.

Take `COC(=O)C1(C(F)CCCCCOc2ccc(Cl)cc2)CO1` (single isomer, unassigned) [3 (isomer A), 2-[6-(4-Chlorophenoxy)-1-fluorohexyl]-2-oxiranecarboxylic acid methyl ester (isomer A)]: testing at 50 µM in test [1] (30 min) gave an inhibition of 84.6%. In addition, the pIC50 in test [1] (setting [9]) was 4.72.

The compound `COC(=O)C1(C(F)CCCCc2ccccc2)CO1` (single isomer, unassigned) [Example 1 (isomer A), 2-(1-Fluoro-5-phenylpentyl)-2-oxiranecarboxylic acid methyl ester (isomer A)] displayed an inhibition at 50 µM in test [1] (30 min) of 88%. Further, the pIC50 in test [1] (setting [9]) is 5.59.

With `COC(=O)C1(C(F)CCCCCOc2ccc(Cl)cc2)CO1` (single isomer, unassigned) [Example 3, 2-[6-(4-Chlorophenoxy)-1-fluorohexyl]-2-oxiranecarboxylic acid methyl ester], the inhibition at 10 µM was 34% in test [2] and 17% in test [3].

Consider `COC(=O)C1(C(F)=CCCCOc2ccc(Cl)cc2)CO1` (centres unmarked) [6 (fluoro-vinyl compound), 2-[5-(4-Chlorophenoxy)-1-fluoro-1-pentenyl]-2-oxiranecarboxylic acid methyl ester], for which, in test [4], the “% Inhibition of paw edema” value worked out at 26%. For the same compound, the inhibition at 10 µM is 33% in test [2] and 15% in test [3]. Moreover, in test [5], the “% Inhibition, iv at 100 mg/kg (PLA2-induced vascular permeability)” value came to 32%. Testing at 50 µM in test [1] (30 min) gave an inhibition of 99.5%. The pIC50 in test [1] (setting [9]) is 5.52.

Regarding `COC(=O)C1(C(F)(F)CCCCOc2ccc(Cl)cc2)CO1` (centres unmarked) [6 (gem-difluoro compound), 2-[5-(4-Chlorophenoxy)-1,1-difluoropentyl]-2-oxiranecarboxylic acid methyl ester], the values for the inhibition at 10 µM in test [2] and in test [3] were 44% and 7%, respectively. In test [1] (30 min), this compound showed an inhibition at 50 µM of 91.1%. For the same compound, the pIC50 in test [1] (setting [9]) was 5.08.

On to `COC(=O)C1(C(F)(F)CCCCCOc2ccc(Cl)cc2)CO1` (centres unmarked) [7 (gem-difluoro compound), 2-[6-(4-Chlorophenoxy)-1,1-difluorohexyl]-2-oxiranecarboxylic acid methyl ester], for which the inhibition at 10 µM in test [2] was found to be 43%; in test [3], 58%. This compound displayed an inhibition at 50 µM in test [1] (30 min) of 82%. The pIC50 in test [1] (setting [9]) is 4.95.

On to `CCCCC/C=C\C/C=C\C/C=C\C/C=C\CCCC(=O)O` [Arachidonic Acid, reference compound], for which, in test [1], the pIC50 was 5.00.

For the compound `NC1=NN(c2cccc(C(F)(F)F)c2)CC1` [BW 755c], the “% Inhibition (PLA2-induced vascular permeability)” value in test [5] (200 mg/kg p.o.) is given as 65.3%.

Turning to `CN(C)CCC(c1ccc(Cl)cc1)c1ccccn1` (centres unmarked) [Chlorpheniramine], the “% Inhibition (PLA2-induced vascular permeability)” value in test [5] (2 mg/kg p.o.) is on record as 45.0%.

With `C[C@@H]1C[C@H]2[C@@H]3CCC4=CC(=O)C=C[C@]4(C)[C@@]3(F)[C@@H](O)C[C@]2(C)[C@@]1(O)C(=O)CO` [Dexamethasone], the “% Inhibition (PLA2-induced vascular permeability)” value in test [5] (10 mg/kg p.o.) is 49.0%.

`COC(=O)C1(C(=O)CCCCCOc2ccc(Cl)cc2)CO1` (centres unmarked) [Example 7A, 2-[6-(4-Chlorophenoxy)-1-oxohexyl]-2-oxiranecarboxylic acid methyl ester]: in test [4], the “% Inhibition of paw edema” value came to 53%. Also, in test [6], the “Mouse Ear Edema Assay, % Change from Control, TOPICAL, TPA” value is -70%. Further, the inhibition at 10 µM in test [2] is 38%; in test [3], 30%. Further, the “Mouse Ear Edema Assay, % Change from Control, TOPICAL, AA” value in test [7] is listed as -59%. The compound also came in with an inhibition at 50 µM in test [1] (30 min) of 88.4%. Besides, the pIC50 in test [1] (setting [9]) is 5.15.

In the case of `COC(=O)C1(C(=O)CCCCc2ccccc2)CO1` (centres unmarked) [Example 9, 2-(5-Phenyl-1-oxopentyl)-2-oxiranecarboxylic acid methyl ester], in test [4], the “% Inhibition of paw edema” value is 27%. Further, the figures for the inhibition at 10 µM in test [2] and in test [3] were 1% and 7%, respectively. Moreover, the “% Inhibition (oxazolone contact hypersensitivity)” value in test [8] was 22.0%. Moreover, in test [1] (30 min), the inhibition at 50 µM came out at 81.8%. In addition, the pIC50 in test [1] (setting [9]) is 5.49.

In the case of `CCOC(=O)C1(CCCCCc2ccc(Cl)cc2)CO1` (centres unmarked) [Example 10, 2-[5-(4-Chlorophenyl)pentyl]-2-oxiranecarboxylic acid ethyl ester], the “% Inhibition of paw edema” value in test [4] was 42%. Further, the “Mouse Ear Edema Assay, % Change from Control, TOPICAL, TPA” value in test [6] is listed as -45%. The inhibition at 10 µM turned out to be 4% in test [2] and 23% in test [3]. For the same compound, the “% Inhibition, iv at 100 mg/kg (PLA2-induced vascular permeability)” value in test [5] was 24.1%. The “Mouse Ear Edema Assay, % Change from Control, TOPICAL, AA” value in test [7] is -73%. Also, the inhibition at 50 µM in test [1] (30 min) came out at 97.2%. The pIC50 in test [1] (setting [9]) is 5.80.

With `COc1ccc2c(c1)c(CC(=O)O)c(C)n2C(=O)c1ccc(Cl)cc1` [Indomethacin, reference compound], the ED50 in test [4] (Rattus norvegicus, po, read-out: Oral ED50 (95% C.L.)) worked out at 3.7 mg/kg. Moreover, the “% Inhibition (PLA2-induced vascular permeability)” value in test [5] (50 mg/kg p.o.) was 15.0%.

`O=C(CBr)c1ccc(Br)cc1` [para-Bromophenacyl bromide, reference compound]: in test [1], the negative-log IC50 (pIC50) is 4.63.

The values are drawn from US4788304A, “Phospholipase A2 inhibitors” (American Home Products Corporation, priority 1987, dated 1988).
